The text below walks through data of patent US8236790B2, “Benzothiadiazepine compounds, a process for their preparation and pharmaceutical compositions containing them” (Les Laboratories Servier, priority 2009, dated 2012).

One data set deals with AMPA receptor. Kind of data set: Membrane depolarisation brought about by AMPA in primary cultures of rat neurons (fluorescence). The class given is cell-based. Particulars: read-out: EC2X (the concentration of compound which doubles the membrane potential brought about by AMPA); cultured rat embryonic neurons, AMPA 3 to 100 μM. As to the method:
Study of the Effect of Compounds on the Membrane Depolarisation Brought about by AMPA in Primary Cultures of Rat Neurons
The test comprises the in vitro measurement, by means of fluorescence, of the membrane depolarisation brought about in cultured rat embryonic neurons by the joint action of AMPA and the compound under test, compared to the action of AMPA alone. The brain cells are placed in culture and kept in a cell culture incubator for 18 days. After incubation, the culture medium is withdrawn and replaced with fluorescent probe loading medium for measurement of the membrane potential (20 μl; membrane potential kit from Molecular Devices) and left at ambient temperature for 1 hour. The base fluorescence of the wells is read (FDSS apparatus from Hamamatsu) and the cells are then injected with AMPA (20 μl; concentration range: from 3 to 100 μM) and the action of the AMPA is measured kinetically. The test compound is then introduced into the wells (20 μl; in a concentration range crossed with that of AMPA) and the action of the compound is measured kinetically. At the end of each of the two periods of kinetic measurement, the result for each well is the average reading over the final 15 seconds of the period. The curves are plotted of the effect of AMPA at the various concentrations of compound. […]

In another data set the test system is CD1 mouse. Kind of data set: Object recognition in the CD1 mouse. The class given is in vivo. Particulars: doses of 1 and 3 mg/kg PO, 60 minutes before each of the 3 phases. The text has this: Object Recognition in the CD1 Mouse
The object recognition test (Behay. Brain Res., 1988, 31, 47-59) is based on the spontaneous exploratory activity of the animal and has the characteristics of episodic memory in humans. This memory test is sensitive to ageing (Eur. J. Pharmacol., 1997, 325, 173-180) and to cholinergic dysfunctions (Pharm. Biochem. Behay., 1996, 53(2), 277-283) and is based on the differences in the exploration of 2 objects of fairly similar shape—one familiar, the other new. The test procedure, which has been adapted for the CD1 mouse, comprises 3 phases which take place in the same test enclosure. During the first phase, which lasts 40 minutes, the mice are habituated to the environment. During the second phase, which takes place the next day, an object is placed in the enclosure and the mouse is free to explore it. Once the duration of that exploration has reached 20 seconds, the mouse is taken out of the enclosure. In the course of the third phase (5 minutes), 24 hours later, the same object is presented (acquiring the status of a “familiar” object), as well as a new object. The duration of exploration, expressed in seconds, is timed for each of the two objects.

In data set [1] the test system is NMDA-type glutamatergic receptors from rat cortex. Kind of data set: Current induced by NMDA in oocytes of Xenopus laevis injected with poly(A+) mRNA from rat cortex (two-electrode voltage clamp). The class given is cell-based. As to conditions: NMDA 3×10^−4M with 3×10^−5M glycine, −60 mV, magnesium-free OR2; read-out: IC50 (concentration of product which inhibits the current induced by NMDA by 50%). Here is the method:
Effect of Compounds on the Current Induced by NMDA in Oocytes of Xenopus laevis Injected with Poly(A^+) mRNA from Rat Cortex
Electrophysiological recordings are carried out on oocytes of Xenopus laevis injected with poly(A^+) mRNA from rat cortex and expressing, inter alia, NMDA-type glutamatergic receptors from rat cortex, in a plexiglass recording chamber continuously perfused with OR2 solution not containing magnesium (which blocks the opening of the NMDA receptor channel) and at ambient temperature. The inward current induced by an application of NMDA is recorded at a resting potential of −60 mV, using a standard two-electrode voltage clamp technique. The NMDA (3×10^−4M) is applied with the perfusion solution in the presence of 3×10^−5M glycine for 30 seconds every 5 minutes, at a constant perfusion rate of 3 ml/min. The amplitude of the current induced by NMDA is measured at the peak of the current. The tested compounds are applied at increasing doses to the same oocyte in the perfusion solution 45 seconds before, 30 seconds during and 30 seconds after the application of 3×10^−4M NMDA in the presence of 3×10^−5M glycine every 5 minutes. The amplitude of the current induced by NMDA in the presence of compound is normalised and expressed as a percentage of that induced in the same oocyte in the absence of product, which corresponds to 100% response. […]
Background: Two-electrode voltage clamp is typically applied to oocytes expressing channels or transporters.

pIC50: −log10 of the molar value.

In turn, `O=S1(=O)NCCNc2ccc(Oc3ccc(OCc4ccccc4)cc3)cc21` [Example 8, 8-[4-(benzyloxy)phenoxy]-2,3,4,5-tetrahydro-1,2,5-benzothiadiazepine 1,1-dioxide] had a melting point of 134 °C.

`O=S1(=O)NCCNc2ccc(Oc3ccccc3)cc21` [Example 1, 8-phenoxy-2,3,4,5-tetrahydro-1,2,5-benzothiadiazepine 1,1-dioxide]: the EC2X in the data set on AMPA receptor is 25 µM. The “exploration of the new object compared to the familiar object” value with CD1 mouse is given as “significantly greater exploration of the new object”. Further, the pIC50 in data set [1] was 5.05.

The melting point is the temperature, or range, at which the solid turns liquid.
